# Assay results: patent US10538555B2, “Macrocyclic inhibitors of the PD-1/PD-L1 and CD80(B7-1)/PD-L1 protein/protein interactions” (BRISTOL-MYERS SQUIBB COMPANY, priority 2014, dated 2020)
# Where a SMILES comes first, the peptide text is derived from it. Bridges are numbered along the chain shown (N, C = ends). [ ]: non-standard residue; d: D form. ξ: configuration not given here. Trp(1-CH2COOH) = N[C@@H](Cc1cn(CC(=O)O)c2ccccc12)C(=O)O; Phe(3,4,5-F3) = N[C@@H](Cc1cc(F)c(F)c(F)c1)C(=O)O; Phe(3,4-F2) = N[C@@H](Cc1ccc(F)c(F)c1)C(=O)O; NMePhe(4-Me) = CN[C@@H](Cc1ccc(C)cc1)C(=O)O; Trp(1-Me) = Cn1cc(C[C@H](N)C(=O)O)c2ccccc21; d(cisHyp) = O=C(O)[C@H]1C[C@@H](O)CN1; Bta = N[C@@H](Cc1csc2ccccc12)C(=O)O; NMeY = CN[C@@H](Cc1ccc(O)cc1)C(=O)O; Hyp = O=C(O)[C@@H]1C[C@@H](O)CN1; NMeF = CN[C@@H](Cc1ccccc1)C(=O)O; dHyp = O=C(O)[C@H]1C[C@H](O)CN1; NMeNle = CCCC[C@H](NC)C(=O)O; Pip = O=C(O)[C@@H]1CCCCN1; dPip = O=C(O)[C@H]1CCCCN1; hSer = N[C@@H](CCO)C(=O)O; NMeA = CN[C@@H](C)C(=O)O; Orn = NCCC[C@H](N)C(=O)O; Dab = NCC[C@H](N)C(=O)O; Dap = NC[C@H](N)C(=O)O; ξPip = O=C(O)C1CCCCN1; ξC = NC(CS)C(=O)O
# Biological target: T1, Human PD-L1/PD-1 (Homo sapiens, UniProt Q9NZQ7)
# T1 construct: TVMV protease cleavage site (C); made in house; host or cells: HEK293T cells
# T1 sequence (Q9NZQ7 with tags, fused parts or gaps): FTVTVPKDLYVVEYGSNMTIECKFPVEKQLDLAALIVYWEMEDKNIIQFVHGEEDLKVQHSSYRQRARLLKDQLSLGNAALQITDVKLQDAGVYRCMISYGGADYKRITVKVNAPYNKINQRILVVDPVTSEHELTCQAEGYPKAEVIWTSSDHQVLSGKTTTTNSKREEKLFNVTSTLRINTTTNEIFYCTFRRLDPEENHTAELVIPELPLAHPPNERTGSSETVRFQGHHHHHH
# Experiment: HTRF Human PD-L1/PD-1 binding assay (PD-1-Ig/PD-L1-His)
# Settings: PD-L1-His 10 nM, PD-1-Ig 20 nM; class symbol; read-out: HTRF Human PD-L1/PD-1 Binding Assay IC50 Range
# Summary of the method: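 HTRF competition using HEK293T-expressed human PD-1(25-167)-Ig at 20 nM and PD-L1(18-239)-His at 10 nM, compound incubated first with PD-L1 for 15 min, then with PD-1 for 15 min. Signal read as 665/620 nm ratio 30 min after adding Eu anti-Ig and APC anti-His antibodies.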
row,SMILES,IC50 [nM]
1,CCCC[C@H]1C(=O)N(C)[C@@H](CCCC)C(=O)N[C@@H](CC(C)C)C(=O)N[C@H](C(=O)NCC(N)=O)CSCC(=O)N[C@@H](Cc2ccc(O)cc2)C(=O)N(C)[C@@H](C)C(=O)N[C@@H](CC(=O)O)C(=O)N2CCC[C@H]2C(=O)N[C@@H](Cc2cnc[nH]2)C(=O)N[C@@H](CCC(N)=O)C(=O)N2C[C@H](O)C[C@H]2C(=O)N[C@@H](Cc2c[nH]c3ccccc23)C(=O)N[C@@H](CCN)C(=O)N[C@@H](Cc2cn(CC(=O)O)c3ccccc23)C(=O)N1C [Example 6416] ({CH2CO}-Y[NMeA]DPHQ[Hyp]W[Dab][Trp(1-CH2COOH)][NMeNle][NMeNle]LCG-NH2; thioether N-14),10 to 99.9
2,"CCCC[C@H]1C(=O)N2C[C@H](O)C[C@@H]2C(=O)N[C@@H](CC(=O)O)C(=O)N[C@@H](C(C)C)C(=O)N(C)[C@@H](Cc2ccccc2)C(=O)N[C@@H](CCC(N)=O)C(=O)N2C[C@H](O)C[C@@H]2C(=O)N[C@@H](Cc2c[nH]c3ccccc23)C(=O)N[C@@H](Cc2ccc(O)cc2)C(=O)N[C@@H](CCC(=O)O)C(=O)N[C@H](C(=O)NCC(N)=O)CSCC(=O)N[C@@H](Cc2ccc(F)c(F)c2)C(=O)N(C)[C@@H](Cc2ccccc2)C(=O)N1C [Example 9315] ({CH2CO}-[Phe(3,4-F2)][NMeF][NMeNle][d(cisHyp)]DV[NMeF]Q[d(cisHyp)]WYECG-NH2; thioether N-13)",10 to 99.9
3,CCCC[C@H]1C(=O)N(C)[C@@H](CCCC)C(=O)N[C@@H](CCCN)C(=O)N[C@H](C(=O)NCC(N)=O)CSCC(=O)N[C@@H](Cc2ccc(O)cc2)C(=O)N2CCCCC2C(=O)N[C@@H](CC(=O)O)C(=O)N2CCC[C@H]2C(=O)N[C@@H](CN)C(=O)N[C@@H](CCC(=O)O)C(=O)N2C[C@H](O)C[C@H]2C(=O)N[C@@H](Cc2c[nH]c3ccccc23)C(=O)N[C@@H](CCN)C(=O)N[C@@H](Cc2c[nH]c3ccccc23)C(=O)N1C (stereo partly drawn) [Example 1528] ({CH2CO}-Y[ξPip]DP[Dap]E[Hyp]W[Dab]W[NMeNle][NMeNle][Orn]CG-NH2; thioether N-14),10 to 99.9
4,CCCC[C@H]1C(=O)N(C)[C@@H](CCCC)C(=O)N[C@@H](CCC(=O)O)C(=O)N[C@H](C(=O)NCC(N)=O)CSCC(=O)N[C@@H](Cc2ccc(O)cc2)C(=O)N2CCCC[C@H]2C(=O)N[C@@H](CC(N)=O)C(=O)N2CCC[C@H]2C(=O)N[C@@H](Cc2cnc[nH]2)C(=O)N[C@@H](CCC(=O)O)C(=O)N2C[C@H](O)C[C@H]2C(=O)N[C@@H](Cc2c[nH]c3ccccc23)C(=O)N[C@@H](CO)C(=O)N[C@@H](Cc2cn(C)c3ccccc23)C(=O)N1C [Example 1504] ({CH2CO}-Y[Pip]NPHE[Hyp]WS[Trp(1-Me)][NMeNle][NMeNle]ECG-NH2; thioether N-14),10 to 99.9
5,"CCCC[C@H]1C(=O)N2C[C@@H](O)C[C@@H]2C(=O)N[C@@H](CC(=O)O)C(=O)N[C@@H](C(C)C)C(=O)N(C)[C@@H](Cc2ccc(C)cc2)C(=O)N[C@@H](CCCN)C(=O)N2CCC[C@@H]2C(=O)N[C@@H](Cc2c[nH]c3ccccc23)C(=O)N[C@@H](Cc2ccc(O)cc2)C(=O)N[C@@H](CCCN)C(=O)N[C@H](C(=O)NCC(N)=O)CSCC(=O)N[C@@H](Cc2cc(F)c(F)c(F)c2)C(=O)N(C)[C@@H](Cc2ccccc2)C(=O)N1C [Example 10121] ({CH2CO}-[Phe(3,4,5-F3)][NMeF][NMeNle][dHyp]DV[NMePhe(4-Me)][Orn][dP]WY[Orn]CG-NH2; thioether N-13)",100 to 990
6,CCCC[C@H]1C(=O)N(C)[C@@H](CCCC)C(=O)N[C@@H](CC(C)C)C(=O)N[C@H](C(=O)NCC(N)=O)CSCC(=O)N[C@@H](Cc2ccc(O)cc2)C(=O)N(C)[C@@H](C)C(=O)N[C@@H](CC(N)=O)C(=O)N2CCC[C@H]2C(=O)N[C@@H](Cc2cnc[nH]2)C(=O)N[C@@H](CCC(N)=O)C(=O)N2C[C@H](O)C[C@H]2C(=O)N[C@@H](Cc2c[nH]c3ccccc23)C(=O)N[C@@H](CO)C(=O)N[C@@H](Cc2cn(CC(=O)O)c3ccccc23)C(=O)N1C [Example 6176] ({CH2CO}-Y[NMeA]NPHQ[Hyp]WS[Trp(1-CH2COOH)][NMeNle][NMeNle]LCG-NH2; thioether N-14),10 to 99.9
7,"CCCC[C@H]1C(=O)N2C[C@H](O)C[C@@H]2C(=O)N2C[C@H](O)C[C@H]2C(=O)N[C@@H](C(C)C)C(=O)N(C)[C@@H](Cc2ccccc2)C(=O)N[C@@H](CCC(=O)O)C(=O)N2CCCC[C@@H]2C(=O)N[C@@H](Cc2c[nH]c3ccccc23)C(=O)N[C@@H](Cc2ccc(O)cc2)C(=O)N[C@@H](CCCN)C(=O)N[C@H](C(=O)NCC(N)=O)CSCC(=O)N[C@@H](Cc2cc(F)c(F)c(F)c2)C(=O)N(C)[C@@H](Cc2ccccc2)C(=O)N1C [Example 3228] ({CH2CO}-[Phe(3,4,5-F3)][NMeF][NMeNle][d(cisHyp)][Hyp]V[NMeF]E[dPip]WY[Orn]CG-NH2; thioether N-13)",10 to 99.9

# Now from value to compound:
row,IC50 [nM],SMILES
1,1 to 9.9,"CCCC[C@H]1C(=O)N2C[C@H](O)C[C@@H]2C(=O)N[C@@H](CC(=O)O)C(=O)N[C@@H](C(C)C)C(=O)N(C)[C@@H](Cc2ccccc2)C(=O)N[C@@H](CCC(N)=O)C(=O)N2C[C@H](O)C[C@@H]2C(=O)N[C@@H](Cc2c[nH]c3ccccc23)C(=O)N[C@@H](Cc2ccc(O)cc2)C(=O)N[C@@H](CCCN)C(=O)N[C@H](C(=O)NCC(N)=O)CSCC(=O)N[C@@H](Cc2cc(F)c(F)c(F)c2)C(=O)N(C)[C@@H](Cc2ccccc2)C(=O)N1C [Example 9354] ({CH2CO}-[Phe(3,4,5-F3)][NMeF][NMeNle][d(cisHyp)]DV[NMeF]Q[d(cisHyp)]WY[Orn]CG-NH2; thioether N-13)"
2,1 to 9.9,CCCC[C@H]1C(=O)N(C)[C@@H](CCCC)C(=O)N[C@@H](CCCN)C(=O)N[C@H](C(=O)NCC(N)=O)CSCC(=O)N[C@@H](Cc2ccc(O)cc2)C(=O)N2CCOCC2C(=O)N[C@@H](CC(N)=O)C(=O)N2CCC[C@H]2C(=O)N[C@@H](Cc2c[nH]cn2)C(=O)N[C@@H](CC(C)C)C(=O)N2C[C@H](O)C[C@H]2C(=O)N[C@@H](Cc2c[nH]c3ccccc23)C(=O)N[C@@H](CO)C(=O)N[C@@H](Cc2c[nH]c3ccccc23)C(=O)N1C (stereo partly drawn) [Example 1532]
3,1 to 9.9,CCCC[C@H]1C(=O)N(C)[C@@H](CCCC)C(=O)N[C@@H](CCC(=O)O)C(=O)N[C@H](C(=O)NCC(N)=O)CSCC(=O)N[C@@H](Cc2ccc(O)cc2)C(=O)N2CCCC[C@H]2C(=O)N[C@@H](CC(=O)O)C(=O)N2CCC[C@H]2C(=O)N[C@@H](CO)C(=O)N[C@@H](CCC(N)=O)C(=O)N2C[C@H](O)C[C@H]2C(=O)N[C@@H](Cc2c[nH]c3ccccc23)C(=O)N[C@@H](CO)C(=O)N[C@@H](Cc2csc3ccccc23)C(=O)N1C [Example 1506] ({CH2CO}-Y[Pip]DPSQ[Hyp]WS[Bta][NMeNle][NMeNle]ECG-NH2; thioether N-14)
4,1 to 9.9,CCCC[C@H]1C(=O)N(C)[C@@H](CCCC)C(=O)N[C@@H](CN)C(=O)N[C@H](C(=O)NCC(N)=O)CSCC(=O)N[C@@H](Cc2ccc(O)cc2)C(=O)N(C)[C@@H](C)C(=O)N[C@@H](CC(N)=O)C(=O)N2CCC[C@H]2C(=O)N[C@@H](CN)C(=O)N[C@@H](CCC(N)=O)C(=O)N2C[C@H](O)C[C@H]2C(=O)N[C@@H](Cc2c[nH]c3ccccc23)C(=O)N[C@@H](CCN)C(=O)N[C@@H](Cc2cn(CC(=O)O)c3ccccc23)C(=O)N1C [Example 5213] ({CH2CO}-Y[NMeA]NP[Dap]Q[Hyp]W[Dab][Trp(1-CH2COOH)][NMeNle][NMeNle][Dap]CG-NH2; thioether N-14)
5,1 to 9.9,"CCCC[C@H]1C(=O)N2CCC[C@@H]2C(=O)N[C@@H](CC(=O)O)C(=O)N[C@@H](C(C)C)C(=O)N(C)[C@@H](Cc2ccccc2)C(=O)N[C@@H](CCC(=O)O)C(=O)N2CCCC[C@@H]2C(=O)N[C@@H](Cc2c[nH]c3ccccc23)C(=O)N[C@@H](Cc2ccc(O)cc2)C(=O)N[C@@H](CC(C)C)C(=O)N[C@H](C(=O)NCC(N)=O)CSCC(=O)N[C@@H](Cc2cc(F)c(F)c(F)c2)C(=O)N(C)[C@@H](Cc2ccc(OC)cc2)C(=O)N1C [Example 10602] ({CH2CO}-[Phe(3,4,5-F3)][NMeY](Me)[NMeNle][dP]DV[NMeF]E[dPip]WYLCG-NH2; thioether N-13)"
6,1 to 9.9,CCCC[C@H]1C(=O)N(C)[C@@H](CCCC)C(=O)N[C@@H](CCCNC(=N)N)C(=O)NC(C(=O)NCC(N)=O)CSCC(=O)N[C@@H](Cc2ccc(O)cc2)C(=O)N(C)[C@@H](C)C(=O)N[C@@H](CC(N)=O)C(=O)N2CCC[C@H]2C(=O)N[C@@H](Cc2cnc[nH]2)C(=O)N[C@@H](CCO)C(=O)N2CCC[C@H]2C(=O)N[C@@H](Cc2c[nH]c3ccccc23)C(=O)N[C@@H](CO)C(=O)N[C@@H](Cc2csc3ccccc23)C(=O)N1C (stereo partly drawn) [Example 9126] ({CH2CO}-Y[NMeA]NPH[hSer]PWS[Bta][NMeNle][NMeNle]R[ξC]G-NH2; thioether N-14)
7,1 to 9.9,CCCC[C@H]1C(=O)N(C)[C@@H](CCCC)C(=O)N[C@@H](CCCN)C(=O)N[C@H](C(=O)NCC(N)=O)CSCC(=O)N[C@@H](Cc2ccc(OC)cc2)C(=O)N(C)[C@@H](C)C(=O)N[C@@H](CC(=O)O)C(=O)N2CCC[C@H]2C(=O)N[C@@H](CN)C(=O)N[C@@H](CCCCN)C(=O)N2C[C@H](O)C[C@H]2C(=O)N[C@@H](Cc2c[nH]c3ccccc23)C(=O)N[C@@H](CC(=O)O)C(=O)N[C@@H](Cc2c[nH]c3ccccc23)C(=O)N1C [Example 7129] ({CH2CO}-Y(Me)[NMeA]DP[Dap]K[Hyp]WDW[NMeNle][NMeNle][Orn]CG-NH2; thioether N-14)
8,1 to 9.9,CCCC[C@H]1C(=O)N(C)[C@@H](CCCC)C(=O)N[C@@H](CCC(=O)O)C(=O)N[C@H](C(=O)NCC(N)=O)CSCC(=O)N[C@@H](Cc2ccc(O)cc2)C(=O)N(C)[C@@H](C)C(=O)N[C@@H](CC(N)=O)C(=O)N2CCC[C@H]2C(=O)N[C@@H](CO)C(=O)N[C@@H](CCC(=O)O)C(=O)N2C[C@H](O)C[C@H]2C(=O)N[C@@H](Cc2c[nH]c3ccccc23)C(=O)N[C@@H](CCC(=O)O)C(=O)N[C@@H](Cc2c[nH]c3ccccc23)C(=O)N1C [Example 5196] ({CH2CO}-Y[NMeA]NPSE[Hyp]WEW[NMeNle][NMeNle]ECG-NH2; thioether N-14)
